Data as given in publication PMC6826779, “Bis-allylic Deuterated DHA Alleviates Oxidative Stress in Retinal Epithelial Cells” (Antioxidants, 2019).
Values belong to the molecule of their own block, whether it stands above or below them.

How the values were obtained:
15-sLOX [1] = target: T1, 15-sLOX (Glycine max, UniProt P08170); assay: Kinetics parameters of 15s-LOX (UV 270 nm, Michaelis-Menten); type: biochemical, Glycine max (soybean)
T1 sequence (P08170 1-839): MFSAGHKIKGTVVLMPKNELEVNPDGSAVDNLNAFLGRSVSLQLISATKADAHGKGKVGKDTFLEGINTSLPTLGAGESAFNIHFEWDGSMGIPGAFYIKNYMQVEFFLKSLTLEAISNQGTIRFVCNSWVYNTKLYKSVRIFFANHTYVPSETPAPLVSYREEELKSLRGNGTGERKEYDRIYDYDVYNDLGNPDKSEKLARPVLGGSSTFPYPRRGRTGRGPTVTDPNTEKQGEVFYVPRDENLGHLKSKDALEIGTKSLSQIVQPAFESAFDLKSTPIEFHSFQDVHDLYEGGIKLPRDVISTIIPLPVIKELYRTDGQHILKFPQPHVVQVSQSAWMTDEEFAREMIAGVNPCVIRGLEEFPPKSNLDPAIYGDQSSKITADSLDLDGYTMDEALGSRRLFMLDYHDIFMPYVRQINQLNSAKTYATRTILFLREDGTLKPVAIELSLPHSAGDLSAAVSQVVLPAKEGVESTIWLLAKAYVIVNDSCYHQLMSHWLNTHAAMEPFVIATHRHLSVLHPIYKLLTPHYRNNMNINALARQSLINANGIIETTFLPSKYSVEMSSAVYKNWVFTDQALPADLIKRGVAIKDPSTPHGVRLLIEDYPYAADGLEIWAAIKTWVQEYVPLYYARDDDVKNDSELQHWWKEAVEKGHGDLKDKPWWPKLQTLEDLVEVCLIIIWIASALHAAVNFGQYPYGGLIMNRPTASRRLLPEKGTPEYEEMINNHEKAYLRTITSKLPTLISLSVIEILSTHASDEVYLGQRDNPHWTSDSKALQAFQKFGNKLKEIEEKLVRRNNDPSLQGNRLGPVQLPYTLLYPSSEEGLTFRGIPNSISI
Method: The activity of 15-sLOX was monitored on a Beckman Coulter DU730 Life Sciences UV-visible spectrometer at a wavelength of 270 nm monitoring the conjugated triene structure in the dihydroxylation products. For the measurements a reaction mixture of DHA or deuterated DHA (0.02 mM; 0.04 mM; 0.1 mM and 0.2 mM) was prepared in 750 µL sodium borate buffer (50 mM, pH 9) by ultrasonification for 10 s. The reaction was subsequently initiated by the addition of 10 µL 15-sLOX (4 mg/mL) to make a total volume of 760 µL in a Hellma CEL2056 quartz cuvette with 1 cm path length (20 °C). The initial reaction rates (V(0)), derived from the recorded UV-absorbance using the law of Lambert-Beer (molar extinction coefficient = 40,000), were plotted against the respective DHA concentrations and fitted to Michaelis-Menten kinetics in GraphPad Prism 7.0. All V(0) values were determined in triplicate and the average of three independent experiments was plotted against the substrate concentrations to yield Michaelis-Menten kinetics.

15-sLOX [2] = target: T1, 15-sLOX; assay: LC-MS/MS of 15s-LOX oxidized samples (product profile); type: biochemical, Glycine max (soybean); conditions: 0.1 mM substrate, 30 min reaction, room temperature
Method: In order to gain insights on the nature of the produced metabolites, LC-MS/MS analysis of the reaction products were carried out. To this end, the respective DHA variants (0.1 mM) were incubated in a 2 mL eppendorf tube with 10 µL 15-sLOX (4 mg/mL) in sodium borate buffer (50 mM, pH 9) for 30 min at room temperature and the reaction quenched by the addition of cold MeOH (760 µL). The hydroperoxides were reduced with the addition of aq. SnCl2 (50 µL, 5 mg/mL) and subsequently the mixture was centrifuged (16,100 ×g for 5 min). Water (2 mL) was added to the supernatant, followed by the dropwise addition of glacial acetic acid (40 µL). The products were purified by SPE using SepPak 200 mg C18 cartridges (3CC), according to published protocols. The methyl formate eluates were evaporated to dryness, dissolved in MeOH (0.5 mL) and stored at −80 °C until analysis. The resulting solution was diluted 1000 times with MeOH for LC-MS/MS measurements. To 120 µL water, 72 µL of MeOH, 4 µL of the diluted solution and 4 µL of an internal standard (15-HETE-d8, Leukotriene LTB4-d4 and DHA-d5) was added. The samples were loaded in a SIL-30AC autosampler and the analytes separated on a Kinetex 1.7 µm C18 100Å, 50 × 2.1 mm LC column as described. The detection of DHA metabolites was performed in selected ion monitoring mode using several traces in order to take the eventual loss of a deuterium atom into account. The following traces were used: m/z 327.2, 343.2, 359.2 and 375.2 for DHA and its metabolites, m/z 327.2, 328.2, 329.2, 344.2, 345.2, 360.2, 361.2, 376.2, 377.2 for D2-DHA, m/z 331.2, 345.3, 346.2, 361.2, 362.3, 363.2, 377.2, 378.2 and 379.2 for D4-DHA and m/z 337.2, 352.2, 353.2, 367.2, 368.2, 369.2, 383.2, 384.2 and 385.2 for D10-DHA. Tandem mass spectra were recorded as product ion scans. Quantification of the metabolites was done by calculating the area ratio between the analyte and the internal standard (DHA-d5 for non-hydroxylated, 15-HETE-d8 for mono-hydroxylated and LTB4-d4 for di-hydroxylated derivatives) using Multiquant version 3.0.2.

ARPE-19 cells [3] = assay: cells; type: cell-based; conditions: ARPE-19, H2O2 treatment 600 µM in 1% FBSM
Method: ARPE-19 cells were obtained from ATCC, and maintained in Dulbecco’s Modified Eagle’s Medium (DMEM)/Ham F12 (GIBCO) containing 10% (v/v) fetal bovine serum (FBS) and 1% (v/v) penicillin/streptomycin under a humidified (95%)/CO2 (5%) atmosphere at 37 °C. For splitting and experiments, cells were dissociated with 0.25% trypsin-EDTA, re-suspended in the culture medium and then plated at 1–3 × 10^5 cells/mL. Cells were cultured and used up to a maximum of 10 passages.
(§1) Cell viability was determined by the MTT colorimetric assay. Cells were incubated for 2 h with MTT reagent (0.5 mg/mL). The absorbance at 570 nm and 655 nm of individual wells was measured using a microplate reader (BioRad 550). The percentage of viable cells was calculated as [(OD570 sample – OD655 sample)/(OD570 control – OD655 control)] × 100%.
ARPE-19 cells were plated into 96-well plates (3 × 10^4 cells/well) and cultured for 24 h to reach confluence before DHA treatment. The cells were treated in medium with 1% FBS (1% FBSM), or with H2O2 prepared in medium with FBS (1%, v/v) to a final concentration of 600 μM. Cells were then treated with DHA, D2-DHA and D4-DHA, at different concentrations (0–80 μm) for 24 h. Control cells were incubated with DMSO (0.2%). After 4 h, cell viability was determined in triplicate using the MTT colorimetric assay. Results were expressed in percentage of viable cells normalized with control conditions in the absence of PUFA and H2O2 stress.
Sigmoidal doses-responses linked to the toxicity were obtained using GraphPad prism software, allowing to calculate IC50 values described as the concentration leading to 50% of cell viability.

ARPE-19 cells [4] = assay: Lipid peroxidation status with C11-Bodipy581/591 probe (FACS) under oxidative conditions; type: cell-based; conditions: ARPE-19, 50 µM for 24 h
Method: ARPE-19 cells were plated into 2 cm^2 wells (2 × 10^5 cells/well) and cultured for 24 h to reach confluence before PUFA or lipophenol treatment. The cell cultures were treated with 1% FBSM containing tested compounds (deuterated DHAs or deuterated lipophenols) at 50 μM for 24 h and then rinsed with media before the incubation of 5 µM C11-Bodipy^581/591 for 30 min. Then, the cells were rinsed and treated with the different stressors, corresponding to different protocols. For chemical stress the cells were incubated with 400 µM of H2O2 during 24 h followed by FACS analysis. For photobleaching stress, the cells were exposed to a white LED lamp with an intensity of 5000 lux at room temperature during 1 h followed by the FACS analysis.
FACS was performed with the BD Accuri C6 Flow Cytometer and BD Accuri C6 Software for data acquisition (BD Biosciences). This flow cytometer is equipped with an excitation laser at 488 nm, and a fluorescence detector FL1 533/30 nm. Data were collected to 10,000 events for each sample using a flow rate of 35 µL/min. Parameters obtained for data analysis included: cell size from the forward scatter (FSC), granularity from the side scatter (SSC) and the green fluorescence of the stained cells with C11-Bodipy^581/591.
First the SSC-A versus FSC-A dot-plot was used to gate the cellular population and remove the cellular debris. Then the SSC-A versus SSC-H dot-plot was used to remove cell doublets in the previous gate to give a final gate. The cellular population in the last gate designed was plotted on count versus log green fluorescence to give the fluorescence mean intensity of FL1. The mean FL1 values were normalized to the cells only stained with C11-Bodipy^581/591.

ARPE-19 cells [5] = assay: Protection of lipophenols against all-trans-retinal (MTT cell viability); type: cell-based; conditions: ARPE-19, pretreatment 80 µM 1 h, trans-retinal 25 µM 4 h, MTT after 20 h
Method: as §1
ARPE-19 cells were plated into 96-well plates (3 × 10^4 cells/well) and cultured for 24 h to reach confluence before lipophenol treatment. Cells were treated with serum free medium containing lipophenols at different concentrations (0–80 μM) for 1 h. Then all-trans-retinal was added to a final concentration of 25 μM for 4 h (in DMF), before rinsing with medium. Cell viability was determined 16–20 h later, in triplicate samples, using the MTT colorimetric assay. Control cells were incubated with DMSO (0.2%) and DMF (0.14%). The data are expressed as the percentage of untreated cells (CTL, without all-trans-retinal).

[6] = serum starvation (1% FBSM) 48 h

Compound: CC/C=C\C/C=C\C/C=C\C/C=C\C/C=C\C/C=C\CCC(=O)O [D10-DHA]
Km (15-sLOX [1]; 15s-LOX, substrate 0.02-0.2 mM, borate buffer pH 9, 20 °C, 270 nm): 3.27 µM

fold decrease in the Vmax value (15-sLOX [1]; 15s-LOX, compared with the other DHAs): more than 10 fold
15s-LOX activity for the double hydroxylation product (15-sLOX [1]; monitored at 270 nm): significantly reduced activity
pre-dominant product of 15-sLOX oxidation (LC-MS) (15-sLOX [2]): vast excess obtained for 17S-HDHA
Compound: [2H]C([2H])(/C=C\CC)/C=C\C([2H])([2H])/C=C\C([2H])([2H])/C=C\C([2H])([2H])/C=C\C([2H])([2H])/C=C\CCC(=O)O [D10-DHA]

Compound: OO [H2O2, Hydrogen peroxide, reference compound]
cell mortality (ARPE-19 cells [3]): 60–70%

Compound: [2H]C([2H])(/C=C\C/C=C\C/C=C\C/C=C\C/C=C\CC)/C=C\CCC(=O)Oc1cc(O)cc(OC(C)C)c1 [IP-D2-DHA, phloroglucinol-OiPr-O-(6,6-D2)-DHA]
lipid peroxidation status (C11-BODIPY fluorescence) (ARPE-19 cells [4]; [6]): slight but significant decrease in lipid peroxidation
increase in cell viability against all-trans-retinal (ARPE-19 cells [5]): 52%

Compound: [2H]C([2H])(C=CCC=CCC=CCC=CCC)C=CC([2H])([2H])C=CCCC(=O)Oc1cc(O)cc(OC(C)C)c1 [IP-D4-DHA, phloroglucinol-OiPr-O-(6,6,9,9-D4)-DHA]
lipid peroxidation status (C11-BODIPY fluorescence) (ARPE-19 cells [4]; serum starvation (1% FBSM) 24 h): decreased lipid peroxidation compared to IP-DHA and IP-D2-DHA
lipid peroxidation status (C11-BODIPY fluorescence) (ARPE-19 cells [4]; [6]): slight but significant decrease in lipid peroxidation
lipid peroxidation status (C11-BODIPY fluorescence) (ARPE-19 cells [4]; then H2O2 400 µM 24 h): decreased the lipid peroxidation status relative to IP-DHA and IP-D2-DHA
lipid peroxidation status (C11-BODIPY fluorescence) (ARPE-19 cells [4]; then photobleaching (white light, 5000 lux, 1 h)): reduction of lipid oxidation
increase in cell viability against all-trans-retinal (ARPE-19 cells [5]): 47%

Compound: CC/C=C\C/C=C\C/C=C\C/C=C\C/C=C\C/C=C\CCC(=O)Oc1cc(O)cc(OC(C)C)c1 [IP-DHA]
increase in cell viability against all-trans-retinal (ARPE-19 cells [5]): 42%
